In patent US8008260B2, “Methods of protecting against apoptosis using lipopeptides” (Cleveland Clinic Foundation, priority 2005, dated 2011):
Values joined by “and” are separate entries in the source; they are usually repeats but may differ in a detail not shown here. Equal entries are not always repeated. Peptide text beside a SMILES is read from it. * marks the point of attachment. Propyl(2R-PamO,3-PamO) = CCCCCCCCCCCCCCCC(=O)OC[C@H](C*)OC(=O)CCCCCCCCCCCCCCC

Tests used:
[1] = biological target: T1, TLR2/TLR6 heterodimer (Homo sapiens, UniProt O60603+Q9Y2C9); assay: NF-κB-dependent reporter activity in 293 cells expressing the TLR2/TLR6 heterodimer; assay type: cell-based; design: NF-κB activation: scale not given here; conditions: in vitro activity, 293 cells expressing TLR2/TLR6
T1 construct: expressed in transfected cells; host or cells: 293 cells
T1 sequence (O60603 21-784): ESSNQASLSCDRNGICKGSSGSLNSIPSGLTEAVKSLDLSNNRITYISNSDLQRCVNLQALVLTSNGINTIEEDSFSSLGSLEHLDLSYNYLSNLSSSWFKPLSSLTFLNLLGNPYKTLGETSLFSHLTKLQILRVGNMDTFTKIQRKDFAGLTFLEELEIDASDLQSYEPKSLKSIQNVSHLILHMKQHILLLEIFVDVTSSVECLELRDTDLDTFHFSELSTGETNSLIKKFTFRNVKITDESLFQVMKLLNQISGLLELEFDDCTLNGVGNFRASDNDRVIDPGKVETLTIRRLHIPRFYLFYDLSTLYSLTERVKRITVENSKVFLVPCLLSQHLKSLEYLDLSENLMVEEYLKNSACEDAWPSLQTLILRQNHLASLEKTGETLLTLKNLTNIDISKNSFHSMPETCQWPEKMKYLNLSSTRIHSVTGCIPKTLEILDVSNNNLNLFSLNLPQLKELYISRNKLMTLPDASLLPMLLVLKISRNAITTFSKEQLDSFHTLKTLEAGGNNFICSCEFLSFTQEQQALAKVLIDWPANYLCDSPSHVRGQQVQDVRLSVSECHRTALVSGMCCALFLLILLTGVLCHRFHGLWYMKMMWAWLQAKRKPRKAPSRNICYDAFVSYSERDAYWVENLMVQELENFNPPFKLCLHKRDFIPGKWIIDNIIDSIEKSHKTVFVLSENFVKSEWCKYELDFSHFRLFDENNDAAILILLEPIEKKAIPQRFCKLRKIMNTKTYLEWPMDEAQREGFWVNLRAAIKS
T1 sequence (Q9Y2C9 32-796): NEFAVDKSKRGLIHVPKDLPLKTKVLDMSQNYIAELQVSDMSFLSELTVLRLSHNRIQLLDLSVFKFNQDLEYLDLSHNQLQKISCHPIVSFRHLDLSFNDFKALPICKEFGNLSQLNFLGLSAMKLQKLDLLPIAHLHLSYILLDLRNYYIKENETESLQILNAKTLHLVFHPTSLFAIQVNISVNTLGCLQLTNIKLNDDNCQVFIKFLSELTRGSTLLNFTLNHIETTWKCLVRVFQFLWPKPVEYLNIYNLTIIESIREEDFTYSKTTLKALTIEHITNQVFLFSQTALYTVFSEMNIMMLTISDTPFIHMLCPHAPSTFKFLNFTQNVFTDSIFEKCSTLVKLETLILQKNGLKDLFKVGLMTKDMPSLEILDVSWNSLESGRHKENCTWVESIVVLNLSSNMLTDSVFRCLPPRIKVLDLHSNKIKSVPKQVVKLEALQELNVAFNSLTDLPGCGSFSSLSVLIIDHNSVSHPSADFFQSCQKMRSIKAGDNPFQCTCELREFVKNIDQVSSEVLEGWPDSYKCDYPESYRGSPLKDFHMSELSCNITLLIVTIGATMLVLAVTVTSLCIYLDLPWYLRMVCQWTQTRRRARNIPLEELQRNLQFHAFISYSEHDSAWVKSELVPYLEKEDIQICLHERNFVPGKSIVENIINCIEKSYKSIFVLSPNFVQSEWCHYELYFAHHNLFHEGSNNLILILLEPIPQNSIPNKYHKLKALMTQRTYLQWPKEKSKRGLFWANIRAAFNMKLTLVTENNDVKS
Protocol: NF-κB-dependent reporter activity was measured in 293 cells that expressed the TLR2/YLR6 heterodimer. […] None of the non-palmitoylated corresponding peptides activated the NF-κB reporter (FIG. 18B). The peptide component of CBLB617 has a (−4) charge, which should prevent it from interacting with negatively charged cell surface markers. […] Table 5 summarizes the in vitro activity and solubility of all the compounds.

[2] = tested on: ICR mice; assay: Radioprotection against total body gamma irradiation (TBI), 30-day survival; assay type: in vivo; conditions: for mice rescued (30-day survival): one experiment
From the text: CBLB601, a R-Pam2-lipopeptide with the peptide moiety consisting of C-SKKKK (SEQ ID NO: 8), was selected for more detailed characterization as a radioprotector based upon its ability to activate NF-κB and preliminary in vivo data on radioprotection in NIH-SWISS mice (see Example 2). The objectives of this study were to determine the optimal dose, route of administration, and time of administration of CBLB601 to serve as a protector. ICR female mice of 10-15 weeks of age were used, with 10-15 animals per group or condition.
The optimal intraperitoneal administration schedule of CBLB601 was determined by injecting the compound at different times prior to irradiation. […] Therefore, all of the optimization experiments were performed with 10 Gy of total body irradiation (TBI). A dose of 3 μg of BCLB601/mouse (1/10 NOAEL) was chosen as the starting dose. Thus, 3 μg of CBLB601 was injected i.p. into ICR mice at 0.5 h, 1 h, 6 h, and 24 h or 1 h, 24 h, 48 h, 72 h, 96 h prior to 10 Gy of TBI (as described in Example 1). […] Injection of CBLB601 24 hrs before irradiation clearly yielded the best radioprotection (90-100% 30-day survival). When the compound was administered 48 hrs before irradiation, the radioprotection was ˜30%. Administration of CBLB601 at 1 hr prior to irradiation produced inconsistent results ranging from 80% protection in one experiment (FIG. 5B) to almost no protection (20%) in another experiment (FIG. 5A).
To determine the optimal radioprotective dose of CBLB601, the timing of injection and level of irradiation were kept constant, while the dose of CBLB601 was varied. ICR mice were injected i.p. with 1, 3, 10, 20, or 30 μg of CBLB601/mouse or 0.1, 0.3, 1, 3, 10, or […] 24 hrs prior to irradiation (10 Gy of TBI), and their survival was monitored for 30 days. The best protective dose was 3 μg/mouse, which supported a survival of 100% (FIGS. 6 A and B). […] Thus, the optimal protective dose of CBLB601 was determined to be 3 μg/mouse.
To determine the level of radiation that was protected by CBLB601, radioprotectant-treated and control mice were exposed to increasing levels of TBI. Groups of ICR mice were injected i.p. with either 3 μg CBLB601/mouse or PBS, and then 24 h later they received 10, 11, 12, 13, 14, and 15 Gy doses of TBI. Survival was recorded over 30 days. […] All of the mice irradiated with 10-11 Gy of TBI died between days 12-14 post irradiation, which was typical for death due to hematopoietic failure. All of the mice that received 14-15 Gy of TBI died between days 7-9 post irradiation, which was typical for mortality due to radiation-induced intestinal damage. Mice that were irradiated with 12-13 Gy of TBI died at intermediate times, which was typical for a mixed etiology of radiation-induced mortality. […] To reach a statistically significant 10% difference between control and CBLB601-treated mice, experimental groups of at least 50 mice must be used. Although CBLB601 rescued 100% of mice from 10 Gy of TBI, its protection at 11 Gy of TBI was only 20%. […] This may be indicative of a combined toxicity of the drug and the irradiation.
CBLB601 was administered intramuscularly to determine the optimal route of administration of this compound (especially since this would be the preferred route of administration for humans). […] In another experiment, increasing doses of CBLB601 administered i.m. were tested against 10, 11, and 12 Gy doses of […] (FIG. 9). […] A summary of the dose-dependency of the radioprotection of […] administered i.p. or i.m. 24 h prior to 10 Gy of TBI is shown in FIG. 10.
The optimal schedule of intramuscular administration of CBLB601 was determined by varying the time between drug delivery and irradiation. ICR mice were injected i.m. with 3 μg of CBLB601/mouse 24 h, 6 h, 3 h, and 1 h prior to TBI and +1 h, +3 h after TBI (FIG. 12A), as well as 48 h, 36 h, 24 h, 12 h, and 6 h prior to TBI (FIG. 12B). […]

[3] = 10 μg/mouse i.p. 24 hrs before 10 Gy TBI

Question: For `CCCCCCCCCCCCCCCC(=O)OC[C@H](CSC[C@H](N)C(=O)N[C@@H](CO)C(=O)N[C@@H](CCCCN)C(=O)N[C@@H](CCCCN)C(=O)N[C@@H](CCCCN)C(=O)N[C@@H](CCCCN)C(=O)O)OC(=O)CCCCCCCCCCCCCCC` [CBLB601, R-PAM2C-SKKKK] (H-C(Propyl(2R-PamO,3-PamO))SKKKK-OH), which NF-κB activation [1] is on record?
Answer: 100

Question: And the “mice rescued (30-day survival)” value ([2]; 1 μg/mouse i.p. 24 hrs before 10 Gy TBI)?
Answer: 90%

Question: What about the protective effect ([2]; 3 μg/mouse i.m. after (1 h and 3 h) 10 Gy TBI) of the same compound?
Answer: no protective effect

Question: And the “optimal time for intramuscular delivery prior to TBI” value ([2]; 3 μg/mouse i.m., 10 Gy TBI)?
Answer: 24 h

Question: What about the “radioprotection (30-day survival)” value ([2]; 3 μg/mouse i.p. 0.5 h before 10 Gy TBI) of the same compound?
Answer: 10%

Question: And the “radioprotection (30-day survival)” value ([2]; 3 μg/mouse i.p. 6 h before 10 Gy TBI)?
Answer: 20%

Question: What about the “kinetics of death versus PBS controls” value ([2]; 3 μg/mouse i.p. 24 h before 11, 12 and 13 Gy) of the same compound?
Answer: died with an accelerated kinetics

Question: What about the “protection (30-day survival)” value ([2]; 3 μg/mouse i.p. 24 h before 11 Gy TBI) of the same compound?
Answer: 20%

Question: And the protection from irradiation ([2]; 3 μg/mouse i.p. 24 h before TBI higher than 11 Gy (12-15 Gy))?
Answer: no protection

Question: What about the 30-day survival ([2]; 3 μg/mouse i.p. 24 hrs before 10 Gy TBI) of the same compound?
Answer: 90-100% and 100%

Question: And the “radioprotection (30-day survival)” value ([2]; 3 μg/mouse i.p. 48 hrs before 10 Gy TBI)?
Answer: ~30%

Question: What about the radioprotection ([2]; 3 μg/mouse i.p. 72 h before 10 Gy TBI) of the same compound?
Answer: No radioprotection

Question: And the radioprotection ([2]; 3 μg/mouse i.p. 96 h before 10 Gy TBI)?
Answer: No radioprotection

Question: What about the “combined toxicity with irradiation” value ([2]; 10 μg/mouse i.m. 24 hr before 10 Gy TBI) of the same compound?
Answer: no sign of combined toxicity

Question: What about the “combined toxicity with irradiation” value [2, 3] of the same compound?
Answer: Some signs of this combined toxicity were detectable

Question: And the “mice rescued (30-day survival)” value [2, 3]?
Answer: 90%

Question: And the “mortality in combination with irradiation versus PBS” value ([2]; 20 μg/mouse i.p. 24 hrs before 10 Gy TBI)?
Answer: accelerated mortality

Question: What about the “mortality in combination with irradiation versus PBS” value ([2]; 30 μg/mouse i.p. 24 hrs before 10 Gy TBI) of the same compound?
Answer: accelerated mortality

Question: And the radioprotection ([2]; 1, 3 or 10 μg/mouse i.m. 24 hr before 10 Gy TBI)?
Answer: imparted radioprotection

Question: What about the “mortality shift at higher doses” value ([2]; 10, 30 μg i.m. prior to 10 Gy TBI) of the same compound?
Answer: non-statistically significant shift to increased mortality

Question: What about the “combined toxicity with irradiation” value ([2]; 10 and 30 μg/mouse i.m. 1 h after 10 Gy TBI) of the same compound?
Answer: increased levels of combined toxicity

Question: And the “therapeutic index (toxic dose/effective dose)” value ([2]; i.m. administration)?
Answer: 10-30

Question: What about the optimal dose ([2]; i.m. and i.p., 24 h prior to 10 Gy TBI) of the same compound?
Answer: 3 μg/mouse

Question: And the “effective dose per body weight” value ([2]; i.m. delivery, 24 h prior to 10 Gy TBI)?
Answer: 0.06 to 0.115 mg/kg

Question: And the “radioprotective dose relative to NOAEL (fold lower)” value ([2]; i.p.)?
Answer: 10-30 fold

Question: And the optimal protective dose ([2]; i.p. 24 hrs before 10 Gy TBI)?
Answer: 3 μg/mouse

Question: What about the “therapeutic index (toxic dose/effective dose)” value ([2]; i.p. administration) of the same compound?
Answer: 3-10

Question: What about the “effective dose per body weight” value ([2]; i.p. delivery, 24 h prior to 10 Gy TBI) of the same compound?
Answer: 0.09 to 0.11 mg/kg

Question: And the therapeutic index ([2]; summary of Example 5)?
Answer: 3
